The record followed here is a melting point compilation (Tetko et al.).

As to `CC(=O)c1cccc(S(=O)(=O)N2CCOCC2)c1`, the melting point fell in the range of 142 to 144 °C. For `Cc1csc(N2CCCC(C(=O)O)C2)n1` (configuration not stated), the melting point lay within 147 to 149 °C.

Take `Cc1nc(N)ccc1C=CC(=O)O`: the melting point is 253 to 255 °C. Compound `COC(=O)c1ccc(C)c(S(=O)(=O)Cl)c1` had a melting point of 45 to 47 °C. In turn, `N#Cc1cccn2ccnc12` yielded a melting point of 169 to 171 °C.

In turn, `Cc1cc(C(=O)O)sc1Br` gave a melting point of 171 to 173 °C. `CC(C)(C)NS(=O)(=O)c1cc(N)ccc1F` came in with a melting point of 138 to 140 °C. For `O=C(O)c1nccnc1C(=O)N1CCOCC1`, the melting point is 185 to 187 °C. Compound `Clc1ccc(NCc2ccccn2)cc1` displayed a melting point of 87 to 89 °C. `CCCc1ccc(-c2csc(N)n2)cc1` returned a melting point of 115 to 117 °C.

Consider `CC(C)c1ccc(-c2cc(N)on2)cc1`, for which the melting point fell in the range of 113 to 115 °C. Under `CCOC(=O)/C(C#N)=C\Nc1cc(C)ccc1OC` stands 131 to 133 °C; under `CC1(c2ccc(F)c(F)c2)NC(=O)NC1=O` (configuration not stated), 175 to 177 °C. Under `CC1(c2cccnc2)NC(=O)NC1=O` (configuration not stated) stands 144 to 146 °C; under `NC(=NO)C1CCCC1`, 74 to 76 °C; under `Cc1oc2nc(CCl)nc(N)c2c1C`, 179 to 181 °C. In the case of `NC(=O)CCOc1ccccc1N`, the melting point is 98 to 100 °C. Under `CC(=O)Nc1cccc(C(C)N)c1` (configuration not stated) stands 59 to 61 °C; under `CS(=O)(=O)c1ccc(Br)c(C(=O)O)c1`, 203 to 205 °C; under `CCOC(=O)c1cc(C)nc2onc(C)c12`, 64 to 66 °C.

Consider `O=C(O)c1ccc(NS(=O)(=O)C=Cc2ccccc2)cc1`, for which the melting point lay within 254 to 256 °C. `O=C(O)C12CC3CC(C1)CC(C(F)(F)F)(C3)C2` had a melting point of 138 to 140 °C.

The compound `O=C1CCCN1c1ccccc1[N+](=O)[O-]` displayed a melting point of 77 to 79 °C. `N#Cc1ccc2[nH]cc(C=O)c2c1` had a melting point of 239 to 241 °C. The compound `COCc1cc(C(=O)O)ccc1F` registered a melting point of 100 to 102 °C. As to `CCNC(=O)COc1ccc(C=O)cc1OC`, the melting point lay in the range of 109 to 111 °C. The figure for `CN1CCN(c2cccc(C#N)n2)CC1` is 59 to 61 °C. On to `O=C1NCCc2ccc([N+](=O)[O-])cc21`, for which the melting point was in the range of 228 to 230 °C. `CCOC(=O)c1ccn(-c2ccc(N)cc2)n1` returned a melting point of 97 to 99 °C. The compound `Cc1cccc(C(C)C(=O)O)c1` (configuration not stated) gave a melting point of 61 to 63 °C.

Regarding `O=C1NC2(CCCCC2)NC2=C1CCCC2`, the melting point lay within 193 to 195 °C.

As to `CCc1cc(=O)[nH]c(-c2ccccc2)n1`, the melting point is 162 to 164 °C. `CC1CNc2ccccc2N(Cc2ccccc2)C1=O` (configuration not stated) registered a melting point of 107 to 109 °C. `CCC(C)n1nc(C(=O)O)cc1C` (configuration not stated): the melting point lay within 103 to 105 °C. Consider `COC(=O)C(=O)CC(=O)c1ccc2c(c1)OCO2`, for which the melting point was 98 to 105 °C. Regarding `NCC1(O)Cc2ccccc2C1`, the melting point was 64 to 66 °C.

Compound `O=C1Nc2cc(Cl)ccc2C1=O` had a melting point of 264 to 266 °C. The figure for `Nc1ccc(Oc2cnccn2)cc1` is 138 to 140 °C; for `COCc1cc(O)ncn1` it is 159 to 161 °C. For the compound `NC(=NO)c1cc2ccccc2o1`, the melting point was in the range of 183 to 185 °C.

With `Cc1cc(NC(=O)CN2CCNCC2)no1`, the melting point fell in the range of 114 to 116 °C. `Cc1cc(S(=O)(=O)Nc2sc3c(c2C(N)=O)CCC(C)C3)ccc1Br` (configuration not stated) showed a melting point of 218 to 220 °C. `N#CCCn1cc(C(=O)O)c(-c2cccc3ccccc23)n1` had a melting point of 179 to 181 °C. The figure for `OCC#Cc1ccc(Cl)cc1` is 76 to 78 °C.

In turn, `CNS(=O)(=O)c1ccc(C(=O)O)o1` had a melting point of 164 to 166 °C. The compound `NC(=O)CSc1nnc(S)s1` displayed a melting point of 192 to 194 °C. The figure for `CC(=O)c1csc(C(=O)O)c1` is 149 to 151 °C. In turn, `NC(=O)NC1(C(=O)O)CCCCC1` came in with a melting point of 179 to 181 °C. In turn, `O=C(O)c1ccccc1SC(F)(F)F` came in with a melting point of 120 to 122 °C.

Regarding `Nc1ccc(NS(=O)(=O)c2c(Cl)cccc2Cl)cc1`, the melting point is 161 to 163 °C. The figure for `CC(C)(C)n1[nH]c(=O)cc1N` is 223 to 225 °C; for `O=C(O)c1ncoc1-c1cccc(F)c1` it is 169 to 171 °C. Under `CNc1cnccn1` stands 44 to 46 °C; under `CC(C)C(NC(=O)C=Cc1ccc(C(N)=O)cc1)C(=O)O` (configuration not stated), 235 to 237 °C; under `CC(C)(C)NC(=O)CC1(C(=O)O)CCCC1`, 201 to 203 °C. The compound `CCOC(=O)Cn1nc(C)c(C=O)c1C` registered a melting point of 79 to 81 °C. `Nc1nc2ccc(Br)cc2s1`: the melting point fell in the range of 119 to 121 °C. `CN(C)S(=O)(=O)c1ccc(Cl)c(N)c1`: the melting point fell in the range of 119 to 121 °C. The figure for `c1ccc(NC2CCN(c3ccncc3)CC2)cc1` is 145 to 147 °C. Consider `N#Cc1cc(Oc2ccc(CC(=O)O)cc2)ccn1`, for which the melting point was 169 to 171 °C. Under `COc1cccc(NC(=O)COc2ccc(C(=O)O)cc2)c1` stands 131 to 134 °C; under `O=C1CCCc2c(Cl)sc(Cl)c21`, 37 to 39 °C. Consider `CC(C(=O)O)c1ccc(Br)cc1` (configuration not stated), for which the melting point was in the range of 54 to 56 °C. Consider `O=C(Nc1ccc([N+](=O)[O-])cc1Cl)OCC(F)(F)F`, for which the melting point was 132 to 134 °C. On to `Cc1nnc(S)n1C1CCCC(C)C1` (configuration not stated), for which the melting point lay within 129 to 131 °C. `CCC1(c2ccc(F)cc2)NC(=O)NC1=O` (configuration not stated) gave a melting point of 95 to 97 °C.

`Cc1cc(C)c(S(=O)(=O)N2CCCC2C(=O)O)c(C)c1` (configuration not stated) registered a melting point of 84 to 86 °C. `CN(C)S(=O)(=O)c1cc(C(=O)O)ccc1Br` yielded a melting point of 257 to 259 °C. Consider `CC(C)(C)c1ccc(C2CCCC(O)C2)cc1` (configuration not stated), for which the melting point is 75 to 77 °C. `Cc1cc(C)c(C(=O)O)[nH]1`: the melting point was 109 to 111 °C.

`O=C(CCl)NC12CC3CC(CC(C3)C1)C2` registered a melting point of 110 to 112 °C.

`COC(=O)c1ccc2c(Cl)ncnc2c1` came in with a melting point of 104 to 106 °C. In the case of `O=C(O)c1cc([N+](=O)[O-])c2nsnc2c1`, the melting point is 199 to 201 °C.

As to `Cc1ccc(N2CCCNC(=O)C2)cc1`, the melting point is 181 to 183 °C. With `Nn1c(S)nnc1-c1ccccc1`, the melting point was 193 to 195 °C. As to `COCc1ccsc1C(=O)O`, the melting point fell in the range of 119 to 121 °C. For the compound `Nc1ccc(C(=O)NCCN2CCCC2)cc1`, the melting point fell in the range of 137 to 139 °C. For `Nc1cc(S(=O)(=O)N2CCCCC2)ccc1Cl`, the melting point lay in the range of 129 to 131 °C. For the compound `O=C(O)c1ccccc1-n1ncc(Cl)c(Cl)c1=O`, the melting point lay in the range of 155 to 156 °C. Under `COc1ccc(Br)cc1C(N)CO` (configuration not stated) stands 99 to 101 °C; under `Oc1cccc(CNCC2CC2)c1`, 99 to 101 °C. Take `CC1(c2cccc(N)c2)NC(=O)NC1=O` (configuration not stated): the melting point was 78 to 80 °C. In the case of `Cc1cc(C(=O)CCl)c(C)n1Cc1ccccc1`, the melting point was 64 to 68 °C.

Consider `O=C(O)c1ccc(Oc2cc(Cl)ccc2Cl)cc1`, for which the melting point is 169 to 171 °C. Compound `Cc1cc(N)ccc1-n1cnnn1` showed a melting point of 135 to 137 °C. In turn, `Cc1ncc(C(=O)O)c(Cl)c1Br` yielded a melting point of 152 to 154 °C.

The compound `CC(=O)Nc1cc(C)nn1CCC#N` displayed a melting point of 159 to 161 °C.

On to `COc1ccc(C)cc1-c1csc(N)n1`, for which the melting point was 205 to 207 °C. With `CC(C)C(Oc1ccccc1Br)C(=O)O` (configuration not stated), the melting point lay within 63 to 65 °C. The figure for `CC(NC(N)=O)C12CC3CC(CC(C3)C1)C2` (configuration not stated) is 159 to 161 °C. Regarding `CCCc1onc(C)c1C(=O)O`, the melting point lay within 107 to 109 °C. Under `Cc1ccc(CC(=O)c2ccc(C)cc2)cc1` stands 100 to 102 °C. The figure for `Cc1cc(C)n(-c2ccc(C(N)=NO)cn2)n1` is 139 to 141 °C; for `NCCCN1C(=O)C2C3C=CC(C3)C2C1=O` (configuration not stated) it is 66 to 68 °C; for `CC(O)(C(=O)O)c1cccc2ccccc12` (configuration not stated) it is 145 to 147 °C. Under `Nc1ccc(NC(=O)N2CCCCCC2)cc1` stands 132 to 134 °C. As for `NCc1nc(-c2ccsc2)no1`, the melting point was in the range of 134 to 136 °C. For `Cc1cccc2c(=O)n(CCC(=O)O)cnc12`, the melting point was 199 to 201 °C. As for `CC(C)CC(=O)N1Cc2ccccc2CC1C(=O)O` (configuration not stated), the melting point is 169 to 171 °C. `Cc1oncc1C(=O)Nc1ccc(C(=O)O)cc1` displayed a melting point of 229 to 231 °C. `CC(C)(C)Nc1ccc(C(=O)O)cc1S(=O)(=O)NC(C)(C)C` registered a melting point of 243 to 245 °C. `O=C(O)C1CCCCN1C1=NS(=O)(=O)c2ccccc21` (configuration not stated) gave a melting point of 185 to 187 °C. Consider `CS(=O)(=O)c1ccc(-c2nc(CCl)cs2)cc1`, for which the melting point is 151 to 153 °C.

`COCCn1cnnc1S` registered a melting point of 79 to 81 °C. On to `Cc1cc(C(=O)CCl)c(Cl)cc1F`, for which the melting point lay within 36 to 38 °C.

For the compound `C=CCNC(=S)N1CCOCC1`, the melting point lay within 61 to 63 °C.

Compound `O=C(NCc1ccccn1)OCC(F)(F)F` showed a melting point of 50 to 52 °C. `COc1cccc(C(N)CC(=O)O)c1OC` (configuration not stated): the melting point fell in the range of 206 to 208 °C.

Compound `Clc1nc(CN2CCOCC2)nc2sc3c(c12)CCC3` had a melting point of 103 to 107 °C.

`O=C(O)Cc1csc(NC(=O)c2cccc(O)c2)n1` came in with a melting point of 196 to 198 °C. `Sc1nnc2sc3ccccc3n12` had a melting point of 252 to 254 °C.

Consider `CC(CC(=O)O)c1ccc(F)cc1` (configuration not stated), for which the melting point lay in the range of 64 to 66 °C. Consider `Cc1cc(C(=O)O)cc(C)c1OC(F)F`, for which the melting point is 189 to 191 °C. The figure for `Nc1ccc(Oc2ccc(F)cc2)nc1` is 47 to 49 °C; for `CC(=O)Nc1ccc(Br)c(C(=O)O)n1` it is 189 to 191 °C. For the compound `Sc1ncnc2ccsc12`, the melting point lay in the range of 271 to 273 °C. In the case of `O=c1cc2c(n[nH]1)CCOC2`, the melting point fell in the range of 218 to 220 °C.

Turning to `N#Cc1ccc(=O)[nH]c1`, the melting point is 253 to 255 °C. `CC(=O)c1cccc(S(=O)(=O)NCCC(=O)O)c1`: the melting point lay in the range of 106 to 110 °C. In turn, `O=C(O)CCCNC(=O)OCc1ccccc1` registered a melting point of 60 to 64 °C. `OC1CCN(c2cncc(Cl)n2)C1` (configuration not stated) displayed a melting point of 80 to 82 °C. Under `CC(C)(Cc1ccccc1)NC(=O)OC(C)(C)C` stands 51 to 53 °C.

The melting point is the temperature of the solid-liquid transition.
